{"source": "ChEMBL document CHEMBL1156251", "about": "“Structure--activity relationships of polymyxin antibiotics” (J Med Chem, 2010)", "key": {"Escherichia coli": {"system": "Escherichia coli", "assay": "Antimicrobial activity against Escherichia coli", "type": "functional"}, "Klebsiella pneumoniae": {"system": "Klebsiella pneumoniae", "assay": "Antimicrobial activity against Klebsiella pneumoniae", "type": "functional"}, "Pseudomonas aeruginosa": {"system": "Pseudomonas aeruginosa", "assay": "Antimicrobial activity against Pseudomonas aeruginosa", "type": "functional, organism-based"}, "Salmonella enterica": {"system": "Salmonella enterica", "assay": "Antimicrobial activity against Salmonella enterica", "type": "functional"}, "Lipopolysaccharide (LPS)": {"biological_target": "Lipopolysaccharide (LPS)", "assay": "Displacement of dansyl-PMB from LPS by isothermal titration calorimetry"}}, "note": "Where “and” joins values, the source holds several entries; their conditions need not be identical. Equal values may be shown once. Where a SMILES comes first, the peptide text is derived from it. Bridges are numbered along the chain shown (N, C = ends). [ ]: non-standard residue; d: D form. Dab = NCC[C@H](N)C(=O)O"}
{"smiles": "CCC(C)CCCCC(=O)N[C@@H](CCNCc1ccc(O)cc1)C(=O)N[C@H](C(=O)N[C@@H](CCN)C(=O)N[C@H]1CCNC(=O)[C@H]([C@@H](C)O)NC(=O)[C@H](CCNCc2ccc(O)cc2)NC(=O)[C@H](CCNCc2cccc(O)c2)NC(=O)[C@H](CC(C)C)NC(=O)[C@@H](CC(C)C)NC(=O)[C@H](CCNCc2ccc(O)cc2)NC1=O)[C@@H](C)O", "note": "(stereo partly specified)", "values": [{"measurement": "MIC", "setting": "Escherichia coli", "value": 5.5, "unit": "µg/mL"}, {"measurement": "MIC", "setting": "Klebsiella pneumoniae", "value": 1.4, "unit": "µg/mL"}]}
{"smiles": "CCC(C)CCCCC(=O)N[C@@H](CC/N=C/c1ccc(N(C)C)cc1)C(=O)N[C@H](C(=O)N[C@@H](CCN)C(=O)N[C@H]1CCNC(=O)[C@H]([C@@H](C)O)NC(=O)[C@H](CC/N=C/c2ccc(N(C)C)cc2)NC(=O)[C@H](CC/N=C/c2ccc(N(C)C)cc2)NC(=O)[C@H](CC(C)C)NC(=O)[C@@H](CC(C)C)NC(=O)[C@H](CC/N=C/c2ccc(N(C)C)cc2)NC1=O)[C@@H](C)O", "note": "(stereo partly specified)", "values": [{"measurement": "MIC", "setting": "Escherichia coli", "value": 12, "unit": "µg/mL"}, {"measurement": "MIC", "setting": "Klebsiella pneumoniae", "value": 3.1, "unit": "µg/mL"}]}
{"smiles": "CCC(C)CCCCC(=O)N[C@@H](CCNCc1ccc(O)cc1)C(=O)N[C@H](C(=O)N[C@@H](CCN)C(=O)N[C@H]1CCNC(=O)[C@H]([C@@H](C)O)NC(=O)[C@H](CCNCc2ccc(O)cc2)NC(=O)[C@H](CCNCc2ccc(O)cc2)NC(=O)[C@H](CC(C)C)NC(=O)[C@@H](Cc2ccccc2)NC(=O)[C@H](CCNCc2ccc(O)cc2)NC1=O)[C@@H](C)O", "note": "(stereo partly specified)", "values": [{"measurement": "MIC", "setting": "Escherichia coli", "value": 6.2, "unit": "µg/mL"}, {"measurement": "MIC", "setting": "Klebsiella pneumoniae", "value": 1.6, "unit": "µg/mL"}]}
{"smiles": "CCC(C)CCCCC(=O)N[C@@H](CCNCc1ccc(C(C)C)cc1)C(=O)N[C@@H](C(=O)N[C@@H](CCN)C(=O)N[C@H]1CCNC(=O)[C@@H]([C@@H](C)O)NC(=O)[C@H](CCNCc2ccc(C(C)C)cc2)NC(=O)[C@H](CCNCc2ccc(C(C)C)cc2)NC(=O)[C@H](CC(C)C)NC(=O)[C@@H](Cc2ccccc2)NC(=O)[C@H](CCNCc2ccc(C(C)C)cc2)NC1=O)[C@@H](C)O", "note": "(stereo partly specified)", "values": [{"measurement": "MIC", "setting": "Escherichia coli", "value": 12, "unit": "µg/mL"}, {"measurement": "MIC", "setting": "Klebsiella pneumoniae", "value": 26, "unit": "µg/mL"}]}
{"smiles": "CCC(C)CCCCC(=O)N[C@@H](CCNCc1ccccc1)C(=O)N[C@H](C(=O)N[C@@H](CCN)C(=O)N[C@H]1CCNC(=O)[C@H]([C@@H](C)O)NC(=O)[C@H](CCNCc2ccccc2)NC(=O)[C@H](CCNCc2ccccc2)NC(=O)[C@H](CC(C)C)NC(=O)[C@@H](CC(C)C)NC(=O)[C@H](CCNCc2ccccc2)NC1=O)[C@@H](C)O", "note": "(stereo partly specified)", "values": [{"measurement": "MIC", "setting": "Escherichia coli", "value": 5, "unit": "µg/mL"}, {"measurement": "MIC", "setting": "Klebsiella pneumoniae", "value": 1.3, "unit": "µg/mL"}]}
{"smiles": "CCC(C)CCCCC(=O)N[C@@H](CC/N=C/c1ccccc1)C(=O)N[C@H](C(=O)N[C@@H](CCN)C(=O)N[C@H]1CCNC(=O)[C@H]([C@@H](C)O)NC(=O)[C@H](CC/N=C/c2ccccc2)NC(=O)[C@H](CC/N=C/c2ccccc2)NC(=O)[C@H](CC(C)C)NC(=O)[C@@H](CC(C)C)NC(=O)[C@H](CC/N=C/c2ccccc2)NC1=O)[C@@H](C)O", "note": "(stereo partly specified)", "values": [{"measurement": "MIC", "setting": "Escherichia coli", "value": 0.08, "unit": "µg/mL"}, {"measurement": "MIC", "setting": "Klebsiella pneumoniae", "value": 26, "unit": "µg/mL"}]}
{"smiles": "CCC(C)CCCCC(=O)N[C@@H](CC/N=C/c1ccc(O)cc1)C(=O)N[C@H](C(=O)N[C@@H](CCN)C(=O)N[C@H]1CCNC(=O)[C@H]([C@@H](C)O)NC(=O)[C@H](CC/N=C/c2ccc(O)cc2)NC(=O)[C@H](CC/N=C/c2ccc(O)cc2)NC(=O)[C@H](CC(C)C)NC(=O)[C@@H](Cc2ccccc2)NC(=O)[C@H](CC/N=C/c2ccc(O)cc2)NC1=O)[C@@H](C)O", "note": "(stereo partly specified)", "values": [{"measurement": "MIC", "setting": "Klebsiella pneumoniae", "value": 26, "unit": "µg/mL"}]}
{"smiles": "CCC(C)CCCCC(=O)N[C@@H](CC/N=C/c1ccccc1)C(=O)N[C@H](C(=O)N[C@@H](CCN)C(=O)N[C@H]1CCNC(=O)[C@H]([C@@H](C)O)NC(=O)[C@H](CC/N=C/c2ccccc2)NC(=O)[C@H](CC/N=C/c2ccccc2)NC(=O)[C@H](CC(C)C)NC(=O)[C@@H](Cc2ccccc2)NC(=O)[C@H](CC/N=C/c2ccccc2)NC1=O)[C@@H](C)O", "note": "(stereo partly specified)", "values": [{"measurement": "MIC", "setting": "Klebsiella pneumoniae", "value": 26, "unit": "µg/mL"}]}
{"smiles": "CCCCCCCC(=O)N[C@@H](CCN)C(=O)N[C@H](C(=O)N[C@@H](CCN)C(=O)N[C@H]1CCNC(=O)[C@H]([C@@H](C)O)NC(=O)[C@H](CCN)NC(=O)[C@H](CCN)NC(=O)[C@H](CC(C)C)NC(=O)C(Cc2c[nH]c3ccccc23)NC(=O)[C@H](CCN)NC1=O)[C@@H](C)O", "note": "(stereo in doubt)", "values": [{"measurement": "MIC", "setting": "Escherichia coli", "value": 2, "unit": "µM"}, {"measurement": "MIC", "setting": "Pseudomonas aeruginosa", "value": 2, "unit": "µM"}, {"measurement": "MIC", "setting": "Salmonella enterica", "value": 2, "unit": "µM"}, {"measurement": "IC50", "setting": "Lipopolysaccharide (LPS)", "value": 6, "unit": "µM"}]}
{"smiles": "CC(C)C[C@@H]1NC(=O)[C@@H](Cc2ccccc2)NC(=O)[C@H](CCN)NC(=O)[C@@H](NC(=O)[C@@H](N)CCN)CCNC(=O)[C@H]([C@@H](C)O)NC(=O)[C@H](CCN)NC(=O)[C@H](CCN)NC1=O", "note": "[POLYMYXIN B OCTAPEPTIDE] (H-[Dab][Dab][Dab][dF]L[Dab][Dab]T; lactam 2-C)", "values": [{"measurement": "MIC", "setting": "Escherichia coli", "value": "≥ 128 µM and ≥ 300 µg/mL"}, {"measurement": "MIC", "setting": "Pseudomonas aeruginosa", "value": 64, "unit": "µM"}, {"measurement": "MIC", "setting": "Salmonella enterica", "value": 256, "unit": "µM"}, {"measurement": "IC50", "setting": "Lipopolysaccharide (LPS)", "value": 21, "unit": "µM"}]}
{"smiles": "CC(C)C[C@@H]1NC(=O)[C@@H](Cc2ccccc2)NC(=O)[C@H](CCN)NC(=O)[C@@H](N)CCNC(=O)[C@H]([C@@H](C)O)NC(=O)[C@H](CCN)NC(=O)[C@H](CCN)NC1=O", "note": "[POLYMYXIN B HEPTAPEPTIDE]", "values": [{"measurement": "MIC", "setting": "Escherichia coli", "value": "≥ 256 µM and ≥ 300 µg/mL"}, {"measurement": "MIC", "setting": "Pseudomonas aeruginosa", "value": 128, "unit": "µM"}, {"measurement": "MIC", "setting": "Salmonella enterica", "value": "≥ 256", "unit": "µM"}, {"measurement": "IC50", "setting": "Lipopolysaccharide (LPS)", "value": ">= 32 nmol/ml"}]}
